Data from PubChem BioAssay (NCI).
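Briefly, cells in 96-well plates were exposed to five compound concentrations for 48 h, and endpoints were estimated by linear interpolation. GI50 = concentration required for 50% inhibition of growth. TGI is the concentration that stops growth completely.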

Legend:
Experiment in all cases: inhibition of tumour cell growth, NCI panel, 48 h
[1] = test system: U251 CNS
[2] = test system: CAKI-1 renal
[3] = test system: NCI/ADR-RES ovarian
[4] = test system: NCI-H23 lung
[5] = test system: OVCAR-8 ovarian
[6] = test system: MDA-MB-435
[7] = test system: RXF 393 renal
[8] = test system: NCI-H522 lung
[9] = test system: EKVX NSCLC
[10] = test system: HOP-62 NSCLC
[11] = test system: OVCAR-4 ovarian
[12] = test system: 786-0 renal
[13] = test system: A498 renal
[14] = test system: SNB-19 CNS
[15] = test system: M14 melanoma
[16] = test system: PC-3 prostate
[17] = test system: OVCAR-3 ovarian
[18] = test system: HCT-116 colon
[19] = test system: MOLT-4 leukemia
[20] = test system: SK-OV-3 ovarian
[21] = test system: HCT-15 colon
[22] = test system: SK-MEL-28 melanoma
[23] = test system: NCI-H460 lung
[24] = test system: MCF7 breast
[25] = test system: MALME-3M melanoma
[26] = test system: SF-268 CNS
[27] = test system: SW-620 colon
[28] = test system: SF-539 CNS
[29] = test system: HOP-92 NSCLC
[30] = test system: NCI-H226 lung
[31] = test system: CCRF-CEM leukemia
[32] = test system: HCC-2998 colon
[33] = test system: SNB-75 CNS
[34] = test system: KM12 colon
[35] = test system: OVCAR-5 ovarian
[36] = test system: K-562 leukemia
[37] = test system: BT-549 breast
[38] = test system: MDA-MB-231 breast
[39] = test system: UO-31 renal
[40] = test system: A549 NSCLC
[41] = test system: HT29 colon
[42] = test system: DU-145 prostate
[43] = test system: COLO 205 colon
[44] = test system: T-47D breast
[45] = test system: SK-MEL-5 melanoma
[46] = test system: SR leukemia
[47] = test system: SK-MEL-2 melanoma
[48] = test system: HS 578T breast
[49] = test system: TK-10 renal
[50] = test system: HL-60(TB) leukemia
[51] = test system: LOX IMVI melanoma
[52] = test system: UACC-257 melanoma
[53] = test system: SN12C renal
[54] = test system: UACC-62 melanoma
[55] = test system: IGROV1 ovarian
[56] = test system: ACHN renal
[57] = test system: RPMI-8226 leukemia

**Q.** How did the GI50 [1] turn out when `N#Cc1c(N2CCOCC2)nc(=S)[nH]c1-c1ccccc1` was run?
**A.** 60.1 µM

**Q.** And the TGI [1]?
**A.** > 100 µM

**Q.** And the GI50 [2]?
**A.** 9.29 µM

**Q.** And the TGI [2]?
**A.** > 100 µM

**Q.** What about the GI50 [3] of the same molecule?
**A.** 53.4 µM

**Q.** What about the TGI [3] of the same molecule?
**A.** > 100 µM

**Q.** And the GI50 [4]?
**A.** 34.5 µM

**Q.** And the TGI [4]?
**A.** > 100 µM

**Q.** What about the GI50 [5] of the same molecule?
**A.** 39.2 µM

**Q.** And the TGI [5]?
**A.** > 100 µM

**Q.** And the GI50 [6]?
**A.** 29.7 µM

**Q.** And the TGI [6]?
**A.** > 100 µM

**Q.** What about the GI50 [7] of the same molecule?
**A.** 21 µM

**Q.** And the TGI [7]?
**A.** > 100 µM

**Q.** And the GI50 [8]?
**A.** 13.8 µM

**Q.** And the TGI [8]?
**A.** > 100 µM

**Q.** And the GI50 [9]?
**A.** 20.2 µM

**Q.** What about the TGI [9] of the same molecule?
**A.** > 100 µM

**Q.** And the GI50 [10]?
**A.** 7.93 µM

**Q.** What about the TGI [10] of the same molecule?
**A.** 68.1 µM

**Q.** What about the GI50 [11] of the same molecule?
**A.** 65.7 µM

**Q.** What about the TGI [11] of the same molecule?
**A.** > 100 µM

**Q.** And the GI50 [12]?
**A.** 14.1 µM

**Q.** What about the TGI [12] of the same molecule?
**A.** > 100 µM

**Q.** And the GI50 [13]?
**A.** 3.66 µM

**Q.** What about the TGI [13] of the same molecule?
**A.** 26.8 µM

**Q.** What about the GI50 [14] of the same molecule?
**A.** 89.9 µM

**Q.** And the TGI [14]?
**A.** > 100 µM

**Q.** And the GI50 [15]?
**A.** 19.9 µM

**Q.** What about the TGI [15] of the same molecule?
**A.** > 100 µM

**Q.** And the GI50 [16]?
**A.** 2.1 µM

**Q.** What about the TGI [16] of the same molecule?
**A.** 8.79 µM

**Q.** And the GI50 [17]?
**A.** 16.9 µM

**Q.** What about the TGI [17] of the same molecule?
**A.** > 100 µM

**Q.** What about the GI50 [18] of the same molecule?
**A.** 42.4 µM

**Q.** And the TGI [18]?
**A.** > 100 µM

**Q.** What about the GI50 [19] of the same molecule?
**A.** 10.7 µM

**Q.** And the TGI [19]?
**A.** > 100 µM

**Q.** And the GI50 [20]?
**A.** 8.48 µM

**Q.** What about the TGI [20] of the same molecule?
**A.** 98.6 µM

**Q.** And the GI50 [21]?
**A.** 24.9 µM

**Q.** And the TGI [21]?
**A.** > 100 µM

**Q.** What about the GI50 [22] of the same molecule?
**A.** 20.5 µM

**Q.** And the TGI [22]?
**A.** > 100 µM

**Q.** What about the GI50 [23] of the same molecule?
**A.** 9.57 µM

**Q.** And the TGI [23]?
**A.** > 100 µM

**Q.** And the GI50 [24]?
**A.** 4.89 µM

**Q.** What about the TGI [24] of the same molecule?
**A.** > 100 µM

**Q.** What about the GI50 [25] of the same molecule?
**A.** 5.19 µM

**Q.** And the TGI [25]?
**A.** 58.9 µM

**Q.** What about the GI50 [26] of the same molecule?
**A.** 33.5 µM

**Q.** And the TGI [26]?
**A.** > 100 µM

**Q.** And the GI50 [27]?
**A.** 74.2 µM

**Q.** What about the TGI [27] of the same molecule?
**A.** > 100 µM

**Q.** What about the GI50 [28] of the same molecule?
**A.** 13.2 µM

**Q.** What about the TGI [28] of the same molecule?
**A.** > 100 µM

**Q.** What about the GI50 [29] of the same molecule?
**A.** 3.94 µM

**Q.** What about the TGI [29] of the same molecule?
**A.** > 100 µM

**Q.** And the GI50 [30]?
**A.** 14.3 µM

**Q.** What about the TGI [30] of the same molecule?
**A.** > 100 µM

**Q.** What about the GI50 [31] of the same molecule?
**A.** 30.9 µM

**Q.** What about the TGI [31] of the same molecule?
**A.** > 100 µM

**Q.** What about the GI50 [32] of the same molecule?
**A.** 77.2 µM

**Q.** What about the TGI [32] of the same molecule?
**A.** > 100 µM

**Q.** And the GI50 [33]?
**A.** 6.12 µM

**Q.** And the TGI [33]?
**A.** > 100 µM

**Q.** And the GI50 [34]?
**A.** 35 µM

**Q.** And the TGI [34]?
**A.** > 100 µM

**Q.** What about the GI50 [35] of the same molecule?
**A.** 18.3 µM

**Q.** What about the TGI [35] of the same molecule?
**A.** > 100 µM

**Q.** What about the GI50 [36] of the same molecule?
**A.** 52 µM

**Q.** What about the TGI [36] of the same molecule?
**A.** > 100 µM

**Q.** What about the GI50 [37] of the same molecule?
**A.** 8.78 µM

**Q.** And the TGI [37]?
**A.** > 100 µM

**Q.** And the GI50 [38]?
**A.** 7.86 µM

**Q.** What about the TGI [38] of the same molecule?
**A.** > 100 µM

**Q.** And the GI50 [39]?
**A.** 4.57 µM

**Q.** What about the TGI [39] of the same molecule?
**A.** > 100 µM

**Q.** What about the GI50 [40] of the same molecule?
**A.** 21.3 µM

**Q.** What about the TGI [40] of the same molecule?
**A.** > 100 µM

**Q.** And the GI50 [41]?
**A.** 33.5 µM

**Q.** What about the TGI [41] of the same molecule?
**A.** > 100 µM

**Q.** And the GI50 [42]?
**A.** 31 µM

**Q.** And the TGI [42]?
**A.** > 100 µM

**Q.** What about the GI50 [43] of the same molecule?
**A.** 19 µM

**Q.** What about the TGI [43] of the same molecule?
**A.** > 100 µM

**Q.** And the GI50 [44]?
**A.** 4.15 µM

**Q.** What about the TGI [44] of the same molecule?
**A.** > 100 µM

**Q.** What about the GI50 [45] of the same molecule?
**A.** 9.36 µM

**Q.** What about the TGI [45] of the same molecule?
**A.** > 100 µM

**Q.** What about the GI50 [46] of the same molecule?
**A.** 29 µM

**Q.** What about the TGI [46] of the same molecule?
**A.** > 100 µM

**Q.** What about the GI50 [47] of the same molecule?
**A.** 4.5 µM

**Q.** And the TGI [47]?
**A.** > 100 µM

**Q.** And the GI50 [48]?
**A.** 7.65 µM

**Q.** What about the TGI [48] of the same molecule?
**A.** 60.7 µM

**Q.** And the GI50 [49]?
**A.** 20.7 µM

**Q.** What about the TGI [49] of the same molecule?
**A.** > 100 µM

**Q.** And the GI50 [50]?
**A.** 15.3 µM

**Q.** What about the TGI [50] of the same molecule?
**A.** > 100 µM

**Q.** What about the GI50 [51] of the same molecule?
**A.** 23.5 µM

**Q.** And the TGI [51]?
**A.** > 100 µM

**Q.** What about the GI50 [52] of the same molecule?
**A.** 49.8 µM

**Q.** What about the TGI [52] of the same molecule?
**A.** > 100 µM

**Q.** What about the GI50 [53] of the same molecule?
**A.** 19 µM

**Q.** And the TGI [53]?
**A.** > 100 µM

**Q.** And the GI50 [54]?
**A.** 4.95 µM

**Q.** And the TGI [54]?
**A.** > 100 µM

**Q.** And the GI50 [55]?
**A.** 3.15 µM

**Q.** And the TGI [55]?
**A.** > 100 µM

**Q.** What about the GI50 [56] of the same molecule?
**A.** 14.1 µM

**Q.** And the TGI [56]?
**A.** > 100 µM

**Q.** What about the GI50 [57] of the same molecule?
**A.** 13.3 µM

**Q.** And the TGI [57]?
**A.** > 100 µM
